In ChEMBL document CHEMBL1155330, “Schisanwilsonins A-G and related anti-HBV lignans from the fruits of Schisandra wilsoniana” (Bioorg Med Chem Lett, 2009):

Key:
[1] = system: Hepatitis B virus; test: Antiviral activity against Hepatitis B virus infected human HepG2.2.15 cells assessed as HBsAg secretion at 50 […] after 9 days by ELISA; format: functional; details: HepG2 2.2.15, 216 h
[2] = system: Hepatitis B virus; test: Antiviral activity against Hepatitis B virus infected human HepG2.2.15 cells assessed as HBsAg secretion at 200 […] after 9 days by ELISA; format: functional; details: HepG2 2.2.15, 216 h
[3] = system: Hepatitis B virus; test: Antiviral activity against Hepatitis B virus infected human HepG2.2.15 cells assessed as HBeAg secretion at 200 […] after 9 days by ELISA; format: functional; details: HepG2 2.2.15, 216 h
[4] = system: Hepatitis B virus; test: Antiviral activity against Hepatitis B virus infected human HepG2.2.15 cells assessed as HBeAg secretion at 50 […] after 9 days by ELISA; format: functional; details: HepG2 2.2.15, 216 h
[5] = system: Hepatitis B virus; test: Antiviral activity against Hepatitis B virus infected human HepG2.2.15 cells assessed as HBeAg secretion at 25 […] after 9 days by ELISA; format: functional; details: HepG2 2.2.15, 216 h
[6] = system: Hepatitis B virus; test: Antiviral activity against Hepatitis B virus infected human HepG2.2.15 cells assessed as HBeAg secretion at 100 […] after 9 days by ELISA; format: functional; details: HepG2 2.2.15, 216 h
[7] = system: Hepatitis B virus; test: Antiviral activity against Hepatitis B virus infected human HepG2.2.15 cells assessed as HBsAg secretion at 25 […] after 9 days by ELISA; format: functional; details: HepG2 2.2.15, 216 h
[8] = system: Hepatitis B virus; test: Antiviral activity against Hepatitis B virus infected human HepG2.2.15 cells assessed as HBsAg secretion at 100 […] after 9 days by ELISA; format: functional; details: HepG2 2.2.15, 216 h
[9] = Cytotoxicity against human HepG2(2.2.15) cells at 50 ug/mL by MTT assay; format: cell-based; details: read-out: GI
[10] = Cytotoxicity against human HepG2(2.2.15) cells at 100 ug/mL by MTT assay; format: cell-based; details: read-out: GI
[11] = Cytotoxicity against human HepG2(2.2.15) cells at 200 ug/mL by MTT assay; format: cell-based; details: read-out: GI

SMILES: COc1cc2c(c(O)c1OC)-c1c(cc(OC)c(OC)c1OC)C[C@](C)(O)[C@@H](C)C2 [GOMISIN H]
- inhibition in vivo at 0.05 mg/kg [1]: 0%
- inhibition in vivo at 0.2 mg/kg [2]: 11.6%
- inhibition in vivo at 0.2 mg/kg [3]: 1.6%
- inhibition in vivo at 0.05 mg/kg [4]: 0%
- inhibition in vivo at 0.025 mg/kg [5]: 0%
- inhibition in vivo at 0.1 mg/kg [6]: 0%
- inhibition in vivo at 0.025 mg/kg [7]: 0%
- inhibition in vivo at 0.1 mg/kg [8]: 3.7%

SMILES: Nc1ccn([C@@H]2CS[C@H](CO)O2)c(=O)n1 [LAMIVUDINE]
- inhibition in vivo at 0.2 mg/kg [2]: 28.6%
- inhibition in vivo at 0.2 mg/kg [3]: 34.5%

SMILES: COc1cc2c(c(OC)c1OC)-c1c(cc(OC)c(OC)c1OC)C[C@H](C)[C@H](C)C2 [SCHISANDRIN A]
- inhibition in vivo at 0.05 mg/kg [1]: 8.8%
- inhibition in vivo at 0.2 mg/kg [2]: 50.3%
- inhibition in vivo at 0.2 mg/kg [3]: 15.9%
- inhibition in vivo at 0.05 mg/kg [4]: 0%
- inhibition in vivo at 0.025 mg/kg [5]: 0%
- inhibition in vivo at 0.1 mg/kg [6]: 11.9%
- inhibition in vivo at 0.025 mg/kg [7]: 0%
- inhibition in vivo at 0.1 mg/kg [8]: 30.9%

SMILES: COc1cc2c(c(O)c1OC)-c1c(cc(OC)c(OC)c1OC)C[C@@H](C)[C@@H](C)C2 [SCHISANHENOL]
- inhibition at 50 ug/mL [9]: ≥ 25%
- inhibition at 100 ug/mL [10]: ≥ 25%
- inhibition in vivo at 0.025 mg/kg [5]: 0%
- inhibition at 200 ug/mL [11]: ≥ 25%
- inhibition in vivo at 0.025 mg/kg [7]: 45%

SMILES: C/C=C(/C)C(=O)O[C@H]1c2cc(OC)c(OC)c(OC)c2-c2c(cc3c(c2O)OCO3)C[C@H](C)[C@@]1(C)O [SCHISANWILSONIN A]
- inhibition in vivo at 0.05 mg/kg [1]: 5.3%
- inhibition at 100 ug/mL [10]: ≥ 25%
- inhibition in vivo at 0.05 mg/kg [4]: 14%
- inhibition in vivo at 0.025 mg/kg [5]: 0%
- inhibition at 200 ug/mL [11]: ≥ 25%
- inhibition in vivo at 0.025 mg/kg [7]: 0%

SMILES: C/C=C(\C)C(=O)O[C@H]1c2cc(OC)c(OC)c(OC)c2-c2c(cc3c(c2O)OCO3)C[C@H](C)[C@@]1(C)O [SCHISANWILSONIN B]
- inhibition in vivo at 0.05 mg/kg [1]: 0%
- inhibition in vivo at 0.05 mg/kg [4]: 9.2%
- inhibition in vivo at 0.025 mg/kg [5]: 0.6%
- inhibition in vivo at 0.1 mg/kg [6]: 18.1%
- inhibition at 200 ug/mL [11]: ≥ 25%
- inhibition in vivo at 0.025 mg/kg [7]: 0%
- inhibition in vivo at 0.1 mg/kg [8]: 7.4%

SMILES: COc1cc2c(c(OC)c1OC)-c1c(cc3c(c1O)OCO3)C[C@H](C)[C@@](C)(O)[C@H]2OC(=O)c1ccccc1 [SCHISANWILSONIN C]
- inhibition in vivo at 0.05 mg/kg [1]: 0%
- inhibition at 100 ug/mL [10]: ≥ 25%
- inhibition in vivo at 0.05 mg/kg [4]: 11.7%
- inhibition in vivo at 0.025 mg/kg [5]: 11.6%
- inhibition at 200 ug/mL [11]: ≥ 25%
- inhibition in vivo at 0.025 mg/kg [7]: 0%

SMILES: C/C=C(\C)C(=O)O[C@H]1c2cc(OC)c(OC)c(OC)c2-c2c(cc(O)c(OC)c2O)C[C@H](C)[C@@]1(C)O [SCHISANWILSONIN D]
- inhibition in vivo at 0.05 mg/kg [1]: 19.5%
- inhibition in vivo at 0.05 mg/kg [4]: 16.5%
- inhibition in vivo at 0.025 mg/kg [5]: 6.2%
- inhibition in vivo at 0.1 mg/kg [6]: 21.6%
- inhibition at 200 ug/mL [11]: ≥ 25%
- inhibition in vivo at 0.025 mg/kg [7]: 12.5%
- inhibition in vivo at 0.1 mg/kg [8]: 28.8%

SMILES: COc1cc2c(c(OC)c1OC)-c1c(cc3c(c1O)OCO3)C[C@H](C)[C@@](C)(O)[C@H]2OC(=O)C(C)C [SCHISANWILSONIN E]
- inhibition in vivo at 0.05 mg/kg [1]: 0%
- inhibition in vivo at 0.05 mg/kg [4]: 0%
- inhibition in vivo at 0.025 mg/kg [5]: 0%
- inhibition in vivo at 0.1 mg/kg [6]: 2%
- inhibition at 200 ug/mL [11]: ≥ 25%
- inhibition in vivo at 0.025 mg/kg [7]: 0%
- inhibition in vivo at 0.1 mg/kg [8]: 0%

SMILES: COc1cc2c(c(OC)c1OC)-c1c(cc3c(c1O)OCO3)C[C@H](C)[C@@](C)(O)[C@H]2OC(C)=O [SCHISANWILSONIN F]
- inhibition in vivo at 0.05 mg/kg [1]: 0%
- inhibition in vivo at 0.05 mg/kg [4]: 6.7%
- inhibition in vivo at 0.025 mg/kg [5]: 5.5%
- inhibition in vivo at 0.1 mg/kg [6]: 9.3%
- inhibition at 200 ug/mL [11]: ≥ 25%
- inhibition in vivo at 0.025 mg/kg [7]: 0%
- inhibition in vivo at 0.1 mg/kg [8]: 0%

SMILES: COc1cc2c(c(OC)c1OC)-c1c(cc(O)c(OC)c1O)C[C@H](C)[C@@](C)(O)[C@H]2OC(=O)c1ccccc1 [SCHISANWILSONIN G]
- inhibition in vivo at 0.05 mg/kg [1]: 0%
- inhibition in vivo at 0.2 mg/kg [2]: 0%
- inhibition in vivo at 0.2 mg/kg [3]: 5.6%
- inhibition in vivo at 0.05 mg/kg [4]: 1.6%
- inhibition in vivo at 0.025 mg/kg [5]: 0%
- inhibition in vivo at 0.1 mg/kg [6]: 3.4%
- inhibition in vivo at 0.025 mg/kg [7]: 0%
- inhibition in vivo at 0.1 mg/kg [8]: 0%
